For the experiment, the target named is T1, HEK-Blue-hTLR9 cells (Homo sapiens, UniProt Q9NR96).
T1 construct: expressed in transfected cells; host or cells: HEK-Blue-hTLR9 cells (HEK293-derived reporter line)
T1 sequence (Q9NR96 26-1032): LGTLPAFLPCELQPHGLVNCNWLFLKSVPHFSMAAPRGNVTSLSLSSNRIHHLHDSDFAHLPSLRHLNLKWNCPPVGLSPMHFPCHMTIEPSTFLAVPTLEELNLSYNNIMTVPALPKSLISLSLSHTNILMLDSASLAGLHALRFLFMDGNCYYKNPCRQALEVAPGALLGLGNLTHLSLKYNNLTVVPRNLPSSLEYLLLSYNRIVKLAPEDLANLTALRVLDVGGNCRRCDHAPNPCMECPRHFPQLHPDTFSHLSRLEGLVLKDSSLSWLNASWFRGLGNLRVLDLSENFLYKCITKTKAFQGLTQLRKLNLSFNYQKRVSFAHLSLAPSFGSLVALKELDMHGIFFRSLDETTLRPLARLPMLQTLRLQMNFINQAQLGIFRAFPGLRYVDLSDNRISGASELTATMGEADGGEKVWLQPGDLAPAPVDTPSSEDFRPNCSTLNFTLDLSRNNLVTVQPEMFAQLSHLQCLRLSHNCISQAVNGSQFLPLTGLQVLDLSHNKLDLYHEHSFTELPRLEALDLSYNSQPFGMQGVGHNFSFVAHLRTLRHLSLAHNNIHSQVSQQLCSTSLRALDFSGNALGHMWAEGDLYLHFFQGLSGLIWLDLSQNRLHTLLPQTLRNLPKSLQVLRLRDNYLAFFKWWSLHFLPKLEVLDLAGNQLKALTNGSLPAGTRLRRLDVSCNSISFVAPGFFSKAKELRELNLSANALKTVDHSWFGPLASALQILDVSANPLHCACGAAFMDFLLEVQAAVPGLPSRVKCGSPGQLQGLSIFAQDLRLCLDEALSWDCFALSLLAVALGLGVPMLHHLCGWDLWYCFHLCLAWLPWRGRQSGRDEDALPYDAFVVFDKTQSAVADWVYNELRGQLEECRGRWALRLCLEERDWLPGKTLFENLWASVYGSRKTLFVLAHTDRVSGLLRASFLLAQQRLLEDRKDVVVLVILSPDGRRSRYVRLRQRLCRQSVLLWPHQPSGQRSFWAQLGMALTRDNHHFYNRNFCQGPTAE
Kind of experiment: HEK-Blue-hTLR9 cell inhibition assay. The class given is cell-based. The note with it: ODN2006 1 µM, 16 h, OD 620 nm, read-out: TLR9 IC50. The protocol:
HEK-Blue-hTLR7/8/9 cell inhibition assay
1. HEK-Blue-hTLR7/8 cells (1 × 10^4 cells/well) and HEK-Blue-hTLR9 cells (1.5 × 10^4 cells/well) were seeded in a 384-well cell culture plate, with a volume of 30 µL per well. The plate was incubated at 37°C in a 5% CO2 incubator for 4 h. 2. The compound was prepared with DMSO and diluted in DMEM medium to 10 concentrations (1:3 dilution), with final concentrations of 10000, 3333.3, 1111.1, 370.4, 123.5, 41.2, 13.7, 4.6, 1.5, and 0.5 nM; R848 was prepared with DMSO and diluted in DMEM medium, with final concentrations of 0.8 µM (HEK-Blue-hTLR7) and 3 µM (HEK-Blue-hTLR8); ODN2006 was prepared with endotoxin-free water and diluted in DMEM medium, with a final concentration of 1 µM. 3. Cells treated with DMSO were used as the blank control group, while cells treated solely with Resiquimod (R848) were used as the positive control group for HEK-Blue-hTLR7/8, and cells treated solely with ODN2006 were used as the positive control group for HEK-Blue-hTLR9. Cells treated with the test compound together with R848 or ODN2006 were used as the test group. Two parallel wells were set for each group and were placed at 37°C in a 5% CO2 incubator for incubation. 4. After being incubated for 4 h, the 384-well plate of HEK-Blue-hTLR7/8 was taken out from the incubator, and R848 alone or both R848 and the diluted compound were separately added into each well. The plate was placed at 37°C in a 5% CO2 incubator for incubation for 16 h; the 384-well plate of HEK-Blue-hTLR9 was taken out from the incubator, and ODN2006 alone or both ODN2006 and the diluted compound were added separately to each well. The plate was incubated at 37°C in a 5% CO2 incubator for 16 h. 5. After being incubated for 16 h, the 384-well plate was removed from the incubator and centrifuged at 1000 rpm for 1 minute. The optical density value of each well at 620 nm was measured using a multifunctional microplate reader. 6. The cell inhibition rate was calculated as (1-(OD620 test group-OD620 blank group)/(OD620 positive group-OD620 blank group))×100%, and the half maximal inhibitory concentration (IC50) was calculated through curve fitting. Table 1: Activity of the compounds of the present disclosure in HEK-Blue-hTLR7/8/9 cellular assays

Among the data in patent EP4806891A1 (Kangbaida (Sichuan) Biotechnology Co., Ltd., priority 2023, dated 2025) are IC50 values, retold here.

Bounds are passed on as bounds.

A word on the IC50: it is the point on the concentration scale where inhibition reaches its midpoint. In the case of `CN(C)[C@H]1CC[C@H](c2nnc([C@]34CN(c5ccc(C#N)c6ncccc56)C[C@@]3(C(F)(F)F)C4)o2)CC1` [Compound 21, 5-((1S,5R)-1-(5-((1R,4S)-4-(dimethylamino)cyclohexyl)-1,3,4-oxadiazol-2-yl)-5-(trifluoromethyl)-3-azabicyclo[3.1.0]hexan-3-yl)quinoline-8-carbonitrile], the IC50 was greater than 1000 nM. For `N#Cc1ccc(N2C[C@]3(c4nnc(C5=CCNC5)o4)C[C@]3(C(F)(F)F)C2)c2cccnc12` [Compound 22, 5-((1S,5R)-1-(5-(2,5-dihydro-1H-pyrrol-3-yl)-1,3,4-oxadiazol-2-yl)-5-(trifluoromethyl)-3-azabicyclo[3.1.0]hexan-3-yl)quinoline-8-carbonitrile], the IC50 was greater than 10000 nM. Regarding `CN1CCC(n2cnc([C@]34CN(c5ccc(C#N)c6ncccc56)C[C@@]3(C(F)(F)F)C4)n2)CC1` [Compound 23, 5-((1S,5R)-1-(1-(1-methylpiperidin-4-yl)-1H-1,2,4-triazol-3-yl)-5-(trifluoromethyl)-3-azabicyclo[3.1.0]hexan-3-yl)quinoline-8-carbonitrile], the IC50 was greater than 1000 nM. `N#Cc1ccc(N2C[C@]3(c4nnc(C#CCN5CCOCC5)o4)C[C@]3(C(F)(F)F)C2)c2cccnc12` [Compound 24, 5-((1S,5R)-1-(5-(3-morpholinoprop-1-yn-1-yl)-1,3,4-oxadiazol-2-yl)-5-(trifluoromethyl)-3-azabicyclo[3.1.0]hexan-3-yl)quinoline-8-carbonitrile]: the IC50 is greater than 10000 nM. To `CN(C)CC#Cc1nnc([C@]23CN(c4ccc(C#N)c5ncccc45)C[C@@]2(C(F)(F)F)C3)o1` [Compound 25, 5-((1S,5R)-1-(5-(3-(dimethylamino)prop-1-yn-1-yl)-1,3,4-oxadiazol-2-yl)-5-(trifluoromethyl)-3-azabicyclo[3.1.0]hexan-3-yl)quinoline-8-carbonitrile] belongs less than 1000 nM. Consider `CC1(C)CC(Cc2nnc([C@]34CN(c5ccc(C#N)c6ncccc56)C[C@@]3(C(F)(F)F)C4)o2)CC(C)(C)N1` [Compound 26, 5-((1S,5R)-1-(5-((2,2,6,6-tetramethylpiperidin-4-yl)methyl)-1,3,4-oxadiazol-2-yl)-5-(trifluoromethyl)-3-azabicyclo[3.1.0]hexan-3-yl)quinoline-8-carbonitrile], for which the 50% inhibitory concentration (IC50) was greater than 1000 nM. On to `N#Cc1ccc(N2C[C@]3(c4nnc(N5CCOCC5)o4)C[C@]3(C(F)(F)F)C2)c2cccnc12` [Compound 27, 5-((1S,5R)-1-(5-morpholino-1,3,4-oxadiazol-2-yl)-5-(trifluoromethyl)-3-azabicyclo[3.1.0]hexan-3-yl)quinoline-8-carbonitrile], for which the IC50 was greater than 10000 nM.

For `CN1CC(Cc2nnc([C@]34CN(c5ccc(C#N)n6ncc(F)c56)C[C@@]3(C(F)(F)F)C4)o2)C1` [Compound 30, 3-fluoro-4-((1S,5R)-1-(5-((1-methylazetidin-3-yl)methyl)-1,3,4-oxadiazol-2-yl)-5-(trifluoromethyl)-3-azabicyclo[3.1.0]hexan-3-yl)pyrazolo[1,5-a]pyridine-7-carbonitrile], the IC50 is greater than 1000 nM. Turning to `CN1CCC(Oc2nnc([C@]34CN(c5ccc(C#N)n6ncc(F)c56)C[C@@]3(C(F)(F)F)C4)o2)CC1` [Compound 31, 3-fluoro-4-((1S,5R)-1-(5-((1-methylpiperidin-4-yl)oxy)-1,3,4-oxadiazol-2-yl)-5-(trifluoromethyl)-3-azabicyclo[3.1.0]hexan-3-yl)pyrazolo[1,5-a]pyridine-7-carbonitrile], the IC50 is greater than 1000 nM. To `N#Cc1ccc(N2C[C@]3(c4nnc(C5(F)CNC5)o4)C[C@]3(C(F)(F)F)C2)c2cccnc12` [Compound 32, 5-((1S,5R)-1-(5-(3-Fluoroazetidin-3-yl)-1,3,4-oxadiazol-2-yl)-5-(trifluoromethyl)-3-azabicyclo[3.1.0]hexan-3-yl)quinoline-8-carbonitrile] belongs greater than 10000 nM; to `N#Cc1ccc(N2C[C@]3(c4nnc(C5CCNCC5F)o4)C[C@]3(C(F)(F)F)C2)c2cccnc12` (stereo partly shown) [Compound 33], greater than 1000 nM. Under `CN1CCC(c2nnc([C@]34CN(c5ccc(C#N)c6ncccc56)C[C@@]3(C(F)(F)F)C4)o2)CC1=O` (stereo partly shown) [Compound 34] stands greater than 10000 nM; under `N#Cc1ccc(N2C[C@]3(c4nnc(CC5CNC5)o4)C[C@]3(C(F)(F)F)C2)c2cccnc12` [Compound 35, 5-((1S,5R)-1-(5-(azetidin-3-ylmethyl)-1,3,4-oxadiazol-2-yl)-5-(trifluoromethyl)-3-azabicyclo[3.1.0]hexan-3-yl)quinoline-8-carbonitrile], greater than 1000 nM. Under `CN1CC(Cc2nnc([C@]34CN(c5ccc(C#N)c6ncccc56)C[C@@]3(C(F)(F)F)C4)o2)C1` [Compound 36, 5-((1S,5R)-1-(5-((1-methylazetidin-3-yl)methyl)-1,3,4-oxadiazol-2-yl)-5-(trifluoromethyl)-3-azabicyclo[3.1.0]hexan-3-yl)quinoline-8-carbonitrile] stands greater than 1000 nM; under `CN1CCC(Cc2nnc([C@]34CN(c5ccc(C#N)c6ncccc56)C[C@@]3(C(F)(F)F)C4)o2)CC1` [Compound 37, 5-((1S,5R)-1-(5-((1-methylpiperidin-4-yl)methyl)-1,3,4-oxadiazol-2-yl)-5-(trifluoromethyl)-3-azabicyclo[3.1.0]hexan-3-yl)quinoline-8-carbonitrile], greater than 1000 nM; under `CN1CCC(Cc2nnc([C@]34CN(c5ccc(C#N)c6ncccc56)C[C@@]3(C(F)(F)F)C4)n2C)CC1` [Compound 38, 5-((1S,5R)-1-(4-methyl-5-((1-methylpiperidin-4-yl)methyl)-4H-1,2,4-triazol-3-yl)-5-(trifluoromethyl)-3-azabicyclo[3.1.0]hexan-3-yl)quinoline-8-carbonitrile], greater than 10000 nM. Consider `CN1CC(c2nnc([C@]34CN(c5ccc(C#N)c6ncccc56)C[C@@]3(C(F)(F)F)C4)o2)C1` [Compound 39, 5-((1S,5R)-1-(5-(1-methylazetidin-3-yl)-1,3,4-oxadiazol-2-yl)-5-(trifluoromethyl)-3-azabicyclo[3.1.0]hexan-3-yl)quinoline-8-carbonitrile], for which the IC50 was greater than 1000 nM.

Take `N#Cc1ccc(N2C[C@]3(c4nnc(CN5CCOCC5)o4)C[C@]3(C(F)(F)F)C2)c2cccnc12` [Compound 40, 5-((1S,5R)-1-(5-(morpholinomethyl)-1,3,4-oxadiazol-2-yl)-5-(trifluoromethyl)-3-azabicyclo[3.1.0]hexan-3-yl)quinoline-8-carbonitrile]: the IC50 is greater than 10000 nM.

Turning to `N#Cc1ccc(N2C[C@]3(c4nnc(CN5CCCC5)o4)C[C@]3(C(F)(F)F)C2)c2cccnc12` [Compound 41, 5-((1S,5R)-1-(5-(Pyrrolidin-1-ylmethyl)-1,3,4-oxadiazol-2-yl)-5-(trifluoromethyl)-3-azabicyclo[3.1.0]hexan-3-yl)quinoline-8-carbonitrile], the IC50 is greater than 10000 nM.
